Test results: patent US20140350273A1, “PEDIATRIC USES OF CABAZITAXEL” (AVENTIS PHARMA S.A., priority 2012, published 2014)
Like-named read-outs stand apart in the source and are kept apart here.

Test system: human Ewing's sarcoma DM101
Format: in vivo
Conditions: for MTTE / T-C: volume endpoint 2000 mm^3; for tumor volume changes from baseline, Median +/− MAD: nude mice bearing DM101 Ewing's sarcoma; for Tumor Volume Data (Day 11) Median / ΔT/ΔC %: day 11
Procedure: The resultant solution contains 10 mg/mL of cabazitaxel. Stock solution of cabazitaxel was then diluted in 0.9% sodium chloride.
This efficacy may be quantified, for example, as changes in tumor volume for each treated (T) and control (C) group, which are calculated for each animal and each day by subtracting the tumor volume on the day of first treatment (staging day) from the tumor volume on the specified observation day. This allows calculating the tumor growth inhibition: ΔT/ΔC=(median delta T/median delta C)×100. Individual tumor volume changes from baseline are thereafter analyzed by a non-parametric two-way ANOVA-TYPE (with factors: group and repeated days) followed by a post-hoc contrasts analysis, with Bonferroni-Holm adjustment for multiplicity, comparing all treated groups to the control group. […] A probability less than 5% (p<0.05) was considered as significant.
Based on the National Cancer Institute (NCl) standards, a ΔT/ΔC≦40% is the minimal level required to declare activity.
This efficacy may also be quantified by the number of tumor regressions observed after therapy. Individual mice reporting a tumor volume ≦50% of the Day 0 measurement for two consecutive measurements over a seven day period were considered partial responders (PR). Individual mice lacking palpable tumors (<4×4 mm^2 for two consecutive measurements over a seven day period) were classified as complete responders (CR); a CR that persisted until study completion was considered a tumor-free survivor (TFS).
Efficacy could also be determined at study completion, using tumor growth delay (T-C) in days, which is calculated using the median time to endpoint (MTTE) value for each treatment (T) group versus control (C). A Log Rank multiple comparison test with Bonferroni-Holm adjustment for multiplicity was applied on individual TTE to compare the treated groups to the control group.
The animals subjected to the experiment are subcutaneously grafted unilaterally with approximately 30 mg of a tumor fragment from low passage pediatric patient-derived tumor xenografts. The animals are implanted with a human patient-derived pediatric tumor xenografted in immuno-compromised mice (Harlan; nu/nu). Several days post tumor implantation, mice are randomized according to their tumor burden to the different groups of treatments and controls. The agents are dosed intravenously at 5.8, 9.3, 15 or 24.2 mg/kg every 4 days for a total of 3 doses (q4d×3) to mice bearing a tumor burden at start of therapy (day 0) ranged from 125 to 250 mm^3.
Beginning Day 0, animals were observed daily and weighed twice weekly using a digital scale; data including individual and mean gram weights (Mean We±SD), mean percent weight change versus Day 0 were recorded for each group. Animal deaths were recorded daily and designated as drug-related (D), technical (T), tumor related (B), or unknown (U) based on weight loss and gross observation; single agent or combination groups reporting a mean >20% for a period of 7 days and/or >10% mortality were considered above the maximum tolerated dose (MTD) for that treatment on the evaluated regimen.
The selected tumor model, DM101, was a low passage patient-derived tumor xenograft derived from an Ewing's sarcoma taken from the bone of a patient.
The following end points were used: • Toxicity was declared at dosages inducing ≧20% body weight loss or ≧10% drug death; • Antitumor efficacy was determined by calculating the ΔT/ΔC value in percent on day 11 post treatment initiation, according to the above mentioned formula; • Individual tumor volume changes from baseline were analyzed by a non-parametric two-way ANOVA-TYPE (with factors: group and repeated day from 4 to 14) followed by a post-hoc contrasts analysis, with Bonferroni-Holm adjustment for multiplicity, comparing all treated groups to the control group on day 11. […] The volume endpoint for T-C calculations was chosen to be 2000 mm^3.

CC(=O)O[C@@]12CO[C@@H]1C[C@H](O)[C@@]1(C)C(=O)[C@H](O)C3=C(C)[C@@H](OC(=O)[C@H](O)[C@@H](NC(=O)OC(C)(C)C)c4ccccc4)C[C@@](O)([C@@H](OC(=O)c4ccccc4)[C@H]21)C3(C)C [Docetaxel, docetaxel]
#CR (5.8 mg/kg i.v./q4d × 3): 0/0/0
#PR (5.8 mg/kg i.v./q4d × 3): 0/0/0
#TFS (5.8 mg/kg i.v./q4d × 3): 0/0/0
Drug Deaths Total (5.8 mg/kg i.v./q4d × 3): 0
Weight Nadir % (5.8 mg/kg i.v./q4d × 3): −1%
Weight Nadir Day (5.8 mg/kg i.v./q4d × 3): 4
Tumor Volume Data (Day 11) Median (5.8 mg/kg i.v./q4d × 3): 366 mm^3
MTTE (5.8 mg/kg i.v./q4d × 3): 35 days
T-C (5.8 mg/kg i.v./q4d × 3): 18.1 days
tumor volume changes from baseline, Median +/− MAD (5.8 mg/kg, DAY 4): 51 +/− 38
tumor volume changes from baseline, Median +/− MAD (5.8 mg/kg, DAY 7): 98 +/− 79
tumor volume changes from baseline, Median +/− MAD (5.8 mg/kg, DAY 11): 202 +/− 183
tumor volume changes from baseline, Median +/− MAD (5.8 mg/kg, DAY 14): 446 +/− 393
tumor volume changes from baseline, Median +/− MAD (5.8 mg/kg, DAY 17): 640 +/− 621
tumor volume changes from baseline, Median +/− MAD (5.8 mg/kg, DAY 20): 813 +/− 756
tumor volume changes from baseline, Median +/− MAD (5.8 mg/kg, DAY 25): 766 +/− 478
tumor volume changes from baseline, Median +/− MAD (5.8 mg/kg, DAY 28): 1140 +/− 564
tumor volume changes from baseline, Median +/− MAD (5.8 mg/kg, DAY 32): 1694 +/− 281
#CR (9.3 mg/kg i.v./q4d × 3): 4
#PR (9.3 mg/kg i.v./q4d × 3): 4
#TFS (9.3 mg/kg i.v./q4d × 3): 1
Drug Deaths Total (9.3 mg/kg i.v./q4d × 3): 0
Weight Nadir % (9.3 mg/kg i.v./q4d × 3): −4%
Weight Nadir Day (9.3 mg/kg i.v./q4d × 3): 7
Tumor Volume Data (Day 11) Median (9.3 mg/kg i.v./q4d × 3): 505 mm^3
ΔT/ΔC % (9.3 mg/kg i.v./q4d × 3): 36.8%
MTTE (9.3 mg/kg i.v./q4d × 3): 30.5 days
T-C (9.3 mg/kg i.v./q4d × 3): 13.6 days
tumor volume changes from baseline, Median +/− MAD (9.3 mg/kg, DAY 4): 25 +/− 25
tumor volume changes from baseline, Median +/− MAD (9.3 mg/kg, DAY 7): 96 +/− 172
tumor volume changes from baseline, Median +/− MAD (9.3 mg/kg, DAY 11): 301 +/− 223
tumor volume changes from baseline, Median +/− MAD (9.3 mg/kg, DAY 14): 472 +/− 550
tumor volume changes from baseline, Median +/− MAD (9.3 mg/kg, DAY 17): 750 +/− 828
tumor volume changes from baseline, Median +/− MAD (9.3 mg/kg, DAY 20): 813 +/− 891
tumor volume changes from baseline, Median +/− MAD (9.3 mg/kg, DAY 25): −78 +/− 110
tumor volume changes from baseline, Median +/− MAD (9.3 mg/kg, DAY 28): −78 +/− 36
tumor volume changes from baseline, Median +/− MAD (9.3 mg/kg, DAY 32): −78 +/− 34
#CR (15 mg/kg i.v./q4d × 3): 4
#PR (15 mg/kg i.v./q4d × 3): 4
#TFS (15 mg/kg i.v./q4d × 3): 1
Drug Deaths Total (15 mg/kg i.v./q4d × 3): 0
Weight Nadir % (15 mg/kg i.v./q4d × 3): −6%
Weight Nadir Day (15 mg/kg i.v./q4d × 3): 14
Tumor Volume Data (Day 11) Median (15 mg/kg i.v./q4d × 3): 204 mm^3
ΔT/ΔC % (15 mg/kg i.v./q4d × 3): 8.9%
MTTE (15 mg/kg i.v./q4d × 3): 50.9 days
T-C (15 mg/kg i.v./q4d × 3): 34 days
CR (15 mg/kg q4d×3 IV): 4/9
TFS (15 mg/kg q4d×3 IV): 1/9
tumor volume changes from baseline, Median +/− MAD (15 mg/kg, DAY 4): 26 +/− 25
tumor volume changes from baseline, Median +/− MAD (15 mg/kg, DAY 7): 73 +/− 109
tumor volume changes from baseline, Median +/− MAD (15 mg/kg, DAY 11): 73 +/− 186
tumor volume changes from baseline, Median +/− MAD (15 mg/kg, DAY 14): 73 +/− 251
tumor volume changes from baseline, Median +/− MAD (15 mg/kg, DAY 17): 169 +/− 347
tumor volume changes from baseline, Median +/− MAD (15 mg/kg, DAY 20): 290 +/− 468
tumor volume changes from baseline, Median +/− MAD (15 mg/kg, DAY 25): −78 +/− 100
tumor volume changes from baseline, Median +/− MAD (15 mg/kg, DAY 28): −84.5 +/− 70
tumor volume changes from baseline, Median +/− MAD (15 mg/kg, DAY 32): −91 +/− 40
#CR (24.2 mg/kg i.v./q4d × 3): 3
#PR (24.2 mg/kg i.v./q4d × 3): 4
#TFS (24.2 mg/kg i.v./q4d × 3): 2
Drug Deaths Total (24.2 mg/kg i.v./q4d × 3): 0
Weight Nadir % (24.2 mg/kg i.v./q4d × 3): −17%
Weight Nadir Day (24.2 mg/kg i.v./q4d × 3): 14
Tumor Volume Data (Day 11) Median (24.2 mg/kg i.v./q4d × 3): 300 mm^3
ΔT/ΔC % (24.2 mg/kg i.v./q4d × 3): 14.9%
MTTE (24.2 mg/kg i.v./q4d × 3): 32.3 days
T-C (24.2 mg/kg i.v./q4d × 3): 15.4 days
CR (24.2 mg/kg q4d×3 IV): 3/9
TFS (24.2 mg/kg q4d×3 IV): 2/9
tumor volume changes from baseline, Median +/− MAD (24.2 mg/kg, DAY 4): 26 +/− 40
tumor volume changes from baseline, Median +/− MAD (24.2 mg/kg, DAY 7): 122
tumor volume changes from baseline, Median +/− MAD (24.2 mg/kg, DAY 11): 122
tumor volume changes from baseline, Median +/− MAD (24.2 mg/kg, DAY 14): 122
tumor volume changes from baseline, Median +/− MAD (24.2 mg/kg, DAY 17): 122
tumor volume changes from baseline, Median +/− MAD (24.2 mg/kg, DAY 20): 394
tumor volume changes from baseline, Median +/− MAD (24.2 mg/kg, DAY 25): 351.5
tumor volume changes from baseline, Median +/− MAD (24.2 mg/kg, DAY 28): 681
tumor volume changes from baseline, Median +/− MAD (24.2 mg/kg, DAY 32): 254
